Consider 80 compounds from the METLIN SMRT retention time set (Domingo-Almenara et al. 2019).

The data set can be described thus: gradient 5% acetonitrile 3 min, to 50% in 2 min, to 85% in 15 min, held 3 min, 100 µL/min. To be noted: column: Zorbax Extend-C18 2.1 x 50 mm; eluents: water / acetonitrile, 0.1% formic acid. The essentials:
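The mobile phases were water and acetonitrile, each with 0.1% formic acid, pumped at 100 μL/min through a Zorbax Extend-C18 column (2.1 × 50 mm, 1.8 μm). Pure standards were injected as mixtures of ~100 molecules and detected by a quadrupole time-of-flight mass spectrometer in positive and negative ionization mode. Retention time came from computationally picked adduct peaks, each inspected by hand.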
Consider `COC(=O)c1ccc(C(=O)NCC(O)c2cccc3ccccc23)cc1` (stereo not given), for which the RP-LC retention time turned out to be 771 s.

For `CC(C)c1ccc(NC(=O)Cc2csc3nc(-c4ccccc4)cn23)cc1`, the RP-LC retention time was determined as 970 s.

`CCOc1ccc(OCC)c(NC(=O)C2CCN(S(=O)(=O)c3cn(C(C)C)cn3)CC2)c1` had an RP-LC retention time of 888 s.

`CCC(=O)N1CCc2cc(N3CC(C(=O)NCc4ccccc4Cl)CC3=O)ccc21` (stereo not given) came in with an RP-LC retention time of 744 s.

In turn, `O=C(CCc1c(-c2ccc(Br)cc2)nc2ccccn12)Nc1ccc(F)c(F)c1` yielded an RP-LC retention time of 727 s.

`CCCCOc1ccc(C(=O)Oc2coc(CSc3nncn3C)cc2=O)cc1` returned an RP-LC retention time of 739 s.

Take `CCOc1ccc(CN2CCC(NC(=O)Cc3cccnc3)C2)cn1` (stereo not given): the RP-LC retention time amounted to 731 s.

For the compound `CSc1ccc(CNC(=O)Cn2nc(-n3cccc3)c3c(C)cc(C)nc32)cc1`, the RP-LC retention time was determined as 1020 s.

In turn, `Cc1cc(F)ccc1NC(=O)c1c(O)c2cccnc2n(-c2ccccc2)c1=O` gave an RP-LC retention time of 1280 s.

`CCOC(=O)c1ccccc1NC(=O)Cn1cnc2nc(N3CCCC(C(=O)NC)C3)sc2c1=O` (stereo not given) returned an RP-LC retention time of 640 s.

Turning to `CCN1C(=O)c2cc(S(=O)(=O)NCc3ccccc3C)ccc2Oc2cccnc21`, the RP-LC retention time came out at 1020 s.

As to `O=C(CN1CCN(Cc2ccc(F)cc2)C1=O)NCCc1cccs1`, the RP-LC retention time is 776 s.

`CC1(C)CC(=O)C2=C(C1)Nc1ccccc1N(CC(=O)Nc1cccc(F)c1)C2c1ccco1` (stereo not given) registered an RP-LC retention time of 924 s.

The compound `CCOCCCNC(=O)C1CCN(c2nc3cccnc3s2)CC1` showed an RP-LC retention time of 654 s.

`Cc1ccc(NS(=O)(=O)c2cc3n(c2)CCCN(C)C3=O)c(F)c1` returned an RP-LC retention time of 684 s.

For `CCc1nnc(-c2ccc3ccn(CC(=O)Nc4cc(C)ccc4OC)c3c2)o1`, the RP-LC retention time came out at 932 s.

For `Nc1cc(C2CCN(S(=O)(=O)c3cccc(C(F)(F)F)c3)CC2)no1`, the RP-LC retention time turned out to be 794 s.

The compound `COc1ccc(Cl)cc1NC(=O)CSc1ccc2nnc(-c3cccc(F)c3)n2n1` came in with an RP-LC retention time of 802 s.

`Cc1ccc(F)c(NC(=O)c2cn3c(n2)CSCC3)c1` displayed an RP-LC retention time of 811 s.

Compound `COCCC1CCOC2(CCN(C(=O)C3CCN(C(C)=O)CC3)CC2)C1` (stereo not given) yielded an RP-LC retention time of 646 s.

On to `Cc1cccc(Nc2nc(-c3ccc([N+](=O)[O-])cc3)cs2)c1`, for which the RP-LC retention time is 1190 s.

`CC(=O)N1CCN(c2nc3c(s2)CC(C(=O)Nc2ccccc2)CC3)CC1` (stereo not given) yielded an RP-LC retention time of 541 s.

Turning to `CCS(=O)(=O)NCc1ccc2c(c1)CCN2C(=O)CC(C)C`, the RP-LC retention time was found to be 794 s.

The compound `O=C(Nc1nccnc1C(=O)NCCN1CCOCC1)c1ccccc1` showed an RP-LC retention time of 569 s.

Compound `Cc1cccc(-c2nc(CNC(=O)C(C)(C)C)no2)c1` showed an RP-LC retention time of 826 s.

Turning to `O=c1n(CCOc2ccccc2)nc2c(S(=O)(=O)N3CCc4ccccc4C3)cccn12`, the RP-LC retention time was determined as 820 s.

On to `O=C(NCCOc1ccc(F)cc1)c1ccc2nsnc2c1`, for which the RP-LC retention time stood at 786 s.

As for `CCOC(=O)C(CC)n1cccc1-c1nc(-c2cccnc2)no1` (stereo not given), the RP-LC retention time came out at 1010 s.

Compound `O=C(NCCc1c[nH]c2ccccc12)c1cc2occc2c(Nc2ccc(F)cc2)n1` yielded an RP-LC retention time of 1020 s.

With `Cc1cc(N2CCN(C)CC2)nc2ccc(NC(=O)NCCc3ccccc3)cc12`, the RP-LC retention time amounted to 614 s.

Regarding `O=C(CC1CCCC1)NCCC1CCN(C(=O)Nc2cc(F)cc(F)c2)CC1`, the RP-LC retention time was found to be 905 s.

As to `CCOc1ccc(NS(=O)(=O)c2cc(C(=O)Nc3ccc(F)cc3)n[nH]2)cc1`, the RP-LC retention time amounted to 851 s.

Regarding `O=C(CN1C(=O)c2ccccc2C1=O)Nc1nnc(-c2ccc3c(c2)OCCO3)o1`, the RP-LC retention time was 678 s.

In the case of `Cc1cc(S(=O)(=O)N2CCc3nc(-c4ccc(Cl)cc4)ncc3C2)ccc1F`, the RP-LC retention time is 1260 s.

`COc1ccccc1NC(=O)CN1C(=O)NC2(CCCCC2)C1=O`: the RP-LC retention time was 760 s.

Turning to `Cc1sc(-c2noc(C(C)C)n2)cc1S(=O)(=O)N1CCC(C(=O)NCc2ccco2)CC1`, the RP-LC retention time came out at 992 s.

Regarding `COc1cccc(CNC(=O)Cn2ncc3c(N4CCN(c5ccccn5)CC4)ncnc32)c1`, the RP-LC retention time was determined as 598 s.

For the compound `O=S(=O)(c1ccccc1)N1CC(F)(F)C[C@H]1COc1cccnc1`, the RP-LC retention time was 690 s.

`c1cc(N2CCSCC2)ncc1-c1noc(CN2CCSCC2)n1` registered an RP-LC retention time of 815 s.

`CCCCNC(=O)Cn1nc2c(N3CCSCC3)nccn2c1=O`: the RP-LC retention time was determined as 728 s.

Take `COc1ccc2oc(-c3noc(CNC(C)=O)n3)c(C)c2c1`: the RP-LC retention time came out at 750 s.

`COc1ccc(C2C(C(=O)NCc3ccccn3)c3cc(OC)c(OC)cc3C(=O)N2C)cc1` (stereo not given) had an RP-LC retention time of 609 s.

The compound `O=C(NCCN1CCOCC1)c1c2c(nc3ccccc13)C(=O)N(C1CCCCC1)C2` returned an RP-LC retention time of 599 s.

The compound `Cc1cccnc1NC(=O)C1CCN(S(=O)(=O)c2ccc3c(c2)sc(=O)n3C(C)C)CC1` showed an RP-LC retention time of 844 s.

With `Cn1nccc1-c1cccc(-c2noc(CNC(=O)c3ccccc3)n2)c1`, the RP-LC retention time is 798 s.

`COC(=O)c1c(C)[nH]c(C(=O)N2CCC(CC(=O)NCCc3ccco3)CC2)c1C` had an RP-LC retention time of 683 s.

Compound `CN(C)c1ccc(-c2nn3c(CSc4ccccc4)nnc3s2)cc1` displayed an RP-LC retention time of 1080 s.

Consider `O=C(NC1CCN(c2cc(-c3ccc(Cl)cc3)[nH]n2)C1)c1cccc(OC(F)(F)F)c1` (stereo not given), for which the RP-LC retention time is 862 s.

Turning to `NC(=O)c1cc(C(N)=O)nc(Cl)n1`, the RP-LC retention time amounted to 604 s.

For `COc1ccc(OC)c(NC(=O)Cn2cccc(-c3nc(-c4ccc(Cl)cc4)no3)c2=O)c1`, the RP-LC retention time was determined as 1000 s.

`COc1cccc(NS(=O)(=O)c2cc(-c3[nH]ncc3C(=O)N3CCCC3)oc2C)c1` came in with an RP-LC retention time of 693 s.

As to `Cc1ccc2[nH]c(=O)c(CCC(=O)NCCN3CCOCC3)cc2c1`, the RP-LC retention time is 577 s.

Compound `CCCC(NC(=O)c1ccccn1)C(=O)Nc1nc2ccccc2[nH]1` (stereo not given) had an RP-LC retention time of 670 s.

Compound `C1CCC(NC2=NCCO2)CC1` registered an RP-LC retention time of 615 s.

For `CC(C)CCn1c(CCCC(=O)N2CCC(C(N)=O)CC2)nc2cccnc21`, the RP-LC retention time worked out at 598 s.

`CC1CCN(c2cncnc2-n2cc(NC(=O)Nc3cccc(F)c3)cn2)CC1`: the RP-LC retention time was found to be 772 s.

The compound `Cc1ccc(-c2cn(CC(=O)Nc3cc(C)ccc3C)c(=O)o2)cc1` showed an RP-LC retention time of 954 s.

Take `CCOCCCNC(=O)c1c(-c2cccc(Br)c2)noc1C`: the RP-LC retention time was 869 s.

The compound `CCCOC(=O)C1=C(C)NC2=C(C(=O)C(C(=O)OC)C(C)C2)C1c1cccc(OC)c1` (stereo not given) yielded an RP-LC retention time of 934 s.

`CCOc1ccc2c(n1)CCN(C(=O)C1(c3ccc(OC)cc3)CC1)C2`: the RP-LC retention time turned out to be 683 s.

Regarding `COc1ccc(-n2ccnc(NC(=O)Nc3ccc(C)c(C)c3)c2=O)cc1OC`, the RP-LC retention time stood at 955 s.

Take `Cc1ccc2c(c1)N(C(=O)Cn1cnc3nc4c(cc3c1=O)CC(C)CC4)CCO2` (stereo not given): the RP-LC retention time worked out at 888 s.

`Cc1ccc(CNc2c(-c3ccc(F)cc3)nc3ncccn23)cc1` registered an RP-LC retention time of 789 s.

With `COc1ccc(CCNC(=O)c2nnc(-c3ccc(S(=O)(=O)N4CCCC4)cc3)o2)cc1OC`, the RP-LC retention time is 824 s.

`CCc1ccc(-c2cc(C(F)(F)F)on2)cc1S(=O)(=O)Nc1ccc(S(N)(=O)=O)cc1`: the RP-LC retention time was 947 s.

For `Cc1cc(C)c2c(N3CCSCC3)nc(C(=O)N3CCN(CC(C)C)CC3)nc2n1`, the RP-LC retention time turned out to be 580 s.

Compound `COC(=O)c1cc(S(=O)(=O)N2CCCC2C(=O)Nc2cccc(F)c2)cn1C` (stereo not given) displayed an RP-LC retention time of 883 s.

`Cc1cccc(-c2noc(C3CCCN3S(=O)(=O)c3c(C)c(C)cc(C)c3C)n2)c1` (stereo not given): the RP-LC retention time stood at 849 s.

For `CCOC(=O)c1nc(Nc2cccc(OC)c2)c2ccccc2n1`, the RP-LC retention time amounted to 854 s.

As for `COC(=O)c1ccc(C(=O)Nc2nnc(Cc3ccc(C)cc3)o2)cc1`, the RP-LC retention time came out at 768 s.

With `CCOC(=O)c1ccccc1NC(=O)NCC(c1cccnc1)c1c[nH]c2ccccc12` (stereo not given), the RP-LC retention time came to 756 s.

As for `CCCOc1nc2ccccc2nc1N1CCCC(C(=O)Nc2cccc(CC)c2)C1` (stereo not given), the RP-LC retention time was found to be 1260 s.

`CCCNc1cc(N2CCC(CCC(=O)Nc3ccc(OC)cc3)CC2)ncn1` registered an RP-LC retention time of 682 s.

In the case of `COc1ccc2c(c1)CC(NC(=O)Nc1ccc(Br)cc1)CO2` (stereo not given), the RP-LC retention time was 888 s.

For the compound `O=C(Nc1ccc(-c2nc(-c3ccc(Cl)cc3)no2)cc1)c1ccco1`, the RP-LC retention time stood at 1170 s.

The compound `COC1C(=O)N(c2cccc(F)c2)C12CCN(Cc1cn(C)c3ccccc13)CC2` (stereo not given) returned an RP-LC retention time of 751 s.

As for `Cc1nc(C(=O)Nc2ccc(Cl)cc2C)c(C)o1`, the RP-LC retention time stood at 1030 s.

In turn, `O=C(Nc1ccc(-c2nnc3n2CCCC3)cc1)c1ccsc1` came in with an RP-LC retention time of 631 s.

`CCc1cccc(NC(=O)c2cn(C)nc2S(=O)(=O)N2CCSCC2)c1` yielded an RP-LC retention time of 1030 s.

The compound `Cn1cccc1C(=O)N1C[C@H]2C[C@H](C1)[C@H]1CCCC(=O)N1C2` displayed an RP-LC retention time of 639 s.
